The values below come from patent publication US20030166605A1, “Method of minimizing damage to heart tissue during cardiac surgery and cardiac transplantation” (priority 1999, published 2003).

The structures appear in SMILES notation. Read-outs that look alike come from different tables or passages of the source.

This series is classed as in vivo. The following applies: for Cardiac Index, slope of percentage change from baseline (Slope ± SE) / Pulmonary capillary wedge pressure, slope of percentage change from baseline (Slope ± SE) / Systolic Blood Pressure, slope of percentage change from baseline (Slope ± SE): per hour; for Cardiac Index, slope of percentage change from baseline (Slope ± SE) / Pulmonary capillary wedge pressure, slope of percentage change from baseline (Slope ± SE) / Systolic Blood Pressure, slope of percentage change from baseline (Slope ± SE) / Heart Rate, slope of percentage change from baseline (Slope ± SE): first 24 postoperative hours; for Heart Rate, slope of percentage change from baseline (Slope ± SE): percentage change per hour; for absolute mean heart rate: 24 hours after surgery; for patients who received dopamine / use of any inotropic agent: first 7 days after surgery; for patients who received dopamine: placebo 77%; for use of any inotropic agent: placebo 79%; for insertions of an intraaortic balloon pump for low cardiac output: nine in placebo group; for death rate: placebo 6.0%. The method, then: A double blind, placebo controlled trial was performed on 253 patients randomized into three groups. The objective of the study was to evaluate the safety, tolerance and efficacy of adenosine in patients undergoing coronary artery bypass surgery. Inadequate myocardial protection in patients undergoing coronary artery bypass surgery contributes to overall hospital mortality and morbidity.
The treatments included the intraoperative administration of cold blood cardioplegia, blood cardioplegia including 500 μM adenosine (“low dose adenosine”), and blood cardioplegia including 200 mM adenosine (“high dose adenosine”). Patients receiving adenosine were also given an infusion of adenosine (200 μg/kg/min) 10 minutes before and 15 minutes after removal of the aortic crossclamp. Invasive and non-invasive measurements of ventricular performance were obtained before, during and after surgery.
Exclusion criteria included known or suspected pregnancy, known hypersensitivity to adenosine, and enrollment in another clinical trial study.
Study Design: 253 patients were split into three groups. Group A patients (n=84) received placebo and were given standard hyperkalemic cold blood cardioplegia. Group B patients (low dose adenosine, n=84) were given hyperkalemic cold blood cardioplegia containing 500 μM adenosine. Group C patients (high dose adenosine) were given hyperkalemic cold blood cardioplegia containing 200 mM adenosine. The patients who received adenosine cardioplegia were also exposed to a 10 minute infusion of adenosine pre-treatment (200 μg/kg/min) immediately before application of the aortic crossclamp and a 15 minute infusion of adenosine immediately after removing the crossclamp.
Before surgery, patients were evaluated for the degree of ischemic disease by history, echocardiography, and cardiac catheterization. In the operating room, hemodynamic measurements were obtained and recorded just before initiating cardiopulmonary bypass and 15, 30, 45 and 60 minutes and 2, 3, 4, 5, and 8 hours after cessation of bypass. In patients requiring intravenous inotropic medications in the postoperative period, hemodynamic monitoring was continued with measurements of specified parameters every 2 hours for 24 hours, and then every 4 hours until the inotropic medications were discontinued or it was ascertained that monitoring was no longer helpful in the management of the patient.
Invasive hemodynamic measurements included systolic blood pressure, heart rate, central venous pressure, pulmonary artery pressure, pulmonary capillary wedge pressure and cardiac output. The cardiac index, stroke volume, systemic vascular resistance, pulmonary vascular resistance, right ventricular stroke work index and left ventricular stroke index were derived. The cardiac output measurements were obtained using a thermodilution catheter and computer. Noninvasive heart function studies included 12-lead electrocardiograms, preoperative stress dobutamine echocardiography, and pre- and post-operative transthoracic and transesophageal echocardiograms. Patients were monitored from the time of enrollment to follow-up 4 to 6 weeks after discharge from the hospital. This included routine blood work and chemistries, arterial blood gases, pH, creatine kinase (CK)-MB concentrations, and pulse oximetry.
The primary endpoints of the study were reduction in total dopamine use during the first 7 days, reduction in all inotropic support required during the first 7 days, reduction in the use of dopamine to less than 5 μg/kg/min.
There were 21 secondary endpoints, including improvement in postoperative hemodynamics, reduction in the use of the intraaortic balloon pump, reduction in the incidence of myocardial infarction, and decrease in the mortality rate.
All patients who received study treatment and underwent coronary bypass surgery were included in the intent-to-treat analysis. […]

Setting [1] is: Group B, low dose adenosine (500 μM cardioplegia + infusion).
[2] abbreviates: Group C, high dose adenosine (200 mM cardioplegia + infusion).

Consider `Nc1ncnc2c1ncn2[C@@H]1O[C@H](CO)[C@@H](O)[C@H]1O` [adenosine], for which, under setting [1], the “Cardiac Index, slope of percentage change from baseline (Slope ± SE)” value is on record as 1.130 ± 0.105; the “Pulmonary capillary wedge pressure, slope of percentage change from baseline (Slope ± SE)” value worked out at 0.688 ± 0.249; the “Systolic Blood Pressure, slope of percentage change from baseline (Slope ± SE)” value is 0.387 ± 0.060. Moreover, the “Heart Rate, slope of percentage change from baseline (Slope ± SE)” value (Group B, low dose adenosine (500 μM in cold blood cardioplegia + 200 μg/kg/min infusion)) is listed as 0.510 ± 0.078. Also, under setting [2], the “Cardiac Index, slope of percentage change from baseline (Slope ± SE)” value is on record as 1.468 ± 0.112; the “Pulmonary capillary wedge pressure, slope of percentage change from baseline (Slope ± SE)” value was −0.869 ± 0.288; the “Systolic Blood Pressure, slope of percentage change from baseline (Slope ± SE)” value was found to be 0.440 ± 0.063. Moreover, the “Heart Rate, slope of percentage change from baseline (Slope ± SE)” value (Group C, high dose adenosine (200 mM in cold blood cardioplegia + 200 μg/kg/min infusion)) is given as 0.820 ± 0.081. Also, for the setting “high dose adenosine group versus placebo”, the “high-dose dopamine support (>5 μg/kg/min)” value is listed as “trend toward a decrease”. Further, for the setting “high dose adenosine group”, the “absolute mean heart rate” value is listed as 96.8±5.4 beats per minute, the “patients who received dopamine” value was 79%, the “use of any inotropic agent” value is listed as 80% and the “insertions of an intraaortic balloon pump for low cardiac output” value is “five”. This compound gave a death rate (high dose adenosine group) of 1.2%. Also, for the setting “high dose adenosine group, placebo 9.5%”, the “postoperative MI rate” value was determined as 1.2%. In addition, the “percentage of patients experiencing one of the composite adverse events (high dose dopamine, epinephrine use, intraaortic balloon pump, MI, death)” value (high dose adenosine versus placebo, p=0.006) is on record as “lower”. The safety and tolerance entry (human, in vivo) was “safe and well tolerated”. For the same compound, for the setting “low dose adenosine group”, the “absolute mean heart rate” value is on record as 90.7±3.6 beats per minute, the “patients who received dopamine” value is 71%, the “use of any inotropic agent” value was found to be 73% and the “insertions of an intraaortic balloon pump for low cardiac output” value is recorded as “two”. Under “low dose adenosine group”, the death rate amounted to 3.6%.
